Measured values from patent US20080194701A1, “Bifunctional Enzyme with Y-Glutamylcysteine Synthetase and Glutathione Synthetase Activity and Uses Thereof” (priority 2004, published 2008).

Key:
[1] = molecular target: E. coli γ-GCS (Escherichia coli, UniProt P0A6W9); conditions: cited from earlier work
[2] = molecular target: T1, Human γ-GCS (Homo sapiens, UniProt P48506); conditions: cited from earlier work
T1 sequence (P48506 1-637): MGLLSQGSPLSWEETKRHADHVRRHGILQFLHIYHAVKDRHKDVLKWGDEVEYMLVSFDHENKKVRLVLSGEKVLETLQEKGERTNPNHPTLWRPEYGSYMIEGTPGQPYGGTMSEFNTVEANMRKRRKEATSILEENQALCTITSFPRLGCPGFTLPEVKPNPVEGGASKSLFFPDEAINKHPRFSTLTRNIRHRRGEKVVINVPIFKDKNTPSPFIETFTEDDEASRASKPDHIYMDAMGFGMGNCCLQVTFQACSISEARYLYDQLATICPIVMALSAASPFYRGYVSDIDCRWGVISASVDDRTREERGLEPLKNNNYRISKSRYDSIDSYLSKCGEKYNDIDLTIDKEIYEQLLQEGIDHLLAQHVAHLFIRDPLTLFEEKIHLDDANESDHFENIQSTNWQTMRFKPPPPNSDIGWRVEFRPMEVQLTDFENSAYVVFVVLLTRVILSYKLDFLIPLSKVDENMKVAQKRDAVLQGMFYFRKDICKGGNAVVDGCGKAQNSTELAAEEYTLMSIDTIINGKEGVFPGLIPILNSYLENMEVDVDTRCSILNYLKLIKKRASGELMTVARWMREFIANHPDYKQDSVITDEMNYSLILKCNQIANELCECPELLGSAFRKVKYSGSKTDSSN
T1 sequence (P48507 1-274 partner): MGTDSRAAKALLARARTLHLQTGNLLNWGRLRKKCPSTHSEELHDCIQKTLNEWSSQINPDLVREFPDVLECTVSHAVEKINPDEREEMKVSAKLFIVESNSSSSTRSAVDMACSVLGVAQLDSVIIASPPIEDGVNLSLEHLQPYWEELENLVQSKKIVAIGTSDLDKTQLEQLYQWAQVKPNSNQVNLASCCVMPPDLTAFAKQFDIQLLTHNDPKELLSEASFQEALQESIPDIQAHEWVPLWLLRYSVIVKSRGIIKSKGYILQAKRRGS

[3] = molecular target: E. coli GS (Escherichia coli, UniProt P04425); conditions: cited from earlier work
[4] = molecular target: T2, Human GS (Homo sapiens, UniProt P48637); conditions: cited from earlier work
T2 sequence (P48637 1-474): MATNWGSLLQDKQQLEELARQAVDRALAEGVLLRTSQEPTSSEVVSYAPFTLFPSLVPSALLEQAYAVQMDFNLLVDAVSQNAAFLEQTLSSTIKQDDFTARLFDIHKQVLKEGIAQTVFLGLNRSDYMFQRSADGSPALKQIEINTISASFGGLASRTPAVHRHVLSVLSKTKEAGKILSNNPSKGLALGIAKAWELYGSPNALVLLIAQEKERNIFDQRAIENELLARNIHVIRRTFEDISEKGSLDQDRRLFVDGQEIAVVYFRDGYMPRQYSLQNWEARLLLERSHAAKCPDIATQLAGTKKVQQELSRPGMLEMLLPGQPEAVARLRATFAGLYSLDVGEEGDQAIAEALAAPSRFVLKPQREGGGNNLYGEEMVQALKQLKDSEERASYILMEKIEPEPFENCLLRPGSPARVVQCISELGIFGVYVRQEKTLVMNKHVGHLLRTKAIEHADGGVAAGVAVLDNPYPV

[5] = molecular target: T3, E. faecalis γ-GCS-GS (Enterococcus faecalis, UniProt Q82ZG8); test: GS activity of E. faecalis γ-GCS-GS; conditions: substrate Km, GS activity
[6] = molecular target: T3, E. faecalis γ-GCS-GS; test: γ-GCS activity of E. faecalis γ-GCS-GS; conditions: substrate Km, γ-GCS activity
[7] = molecular target: T4, S. agalactiae γ-GCS-GS (Streptococcus agalactiae serotype V, UniProt Q8DXM9); test: γ-GCS activity assay based on ADP formation, S. agalactiae γ-GCS-GS; format: biochemical; set-up: corresponded to full-length S. agalactiae γ-GCS-GS with an N-terminal His8-tag; made in house; host or cells: E. coli SG13009 with pQE30-gshAB plus pREP4 or pRARE; conditions: γ-GCS activity
T4 sequence (Q8DXM9 1-750): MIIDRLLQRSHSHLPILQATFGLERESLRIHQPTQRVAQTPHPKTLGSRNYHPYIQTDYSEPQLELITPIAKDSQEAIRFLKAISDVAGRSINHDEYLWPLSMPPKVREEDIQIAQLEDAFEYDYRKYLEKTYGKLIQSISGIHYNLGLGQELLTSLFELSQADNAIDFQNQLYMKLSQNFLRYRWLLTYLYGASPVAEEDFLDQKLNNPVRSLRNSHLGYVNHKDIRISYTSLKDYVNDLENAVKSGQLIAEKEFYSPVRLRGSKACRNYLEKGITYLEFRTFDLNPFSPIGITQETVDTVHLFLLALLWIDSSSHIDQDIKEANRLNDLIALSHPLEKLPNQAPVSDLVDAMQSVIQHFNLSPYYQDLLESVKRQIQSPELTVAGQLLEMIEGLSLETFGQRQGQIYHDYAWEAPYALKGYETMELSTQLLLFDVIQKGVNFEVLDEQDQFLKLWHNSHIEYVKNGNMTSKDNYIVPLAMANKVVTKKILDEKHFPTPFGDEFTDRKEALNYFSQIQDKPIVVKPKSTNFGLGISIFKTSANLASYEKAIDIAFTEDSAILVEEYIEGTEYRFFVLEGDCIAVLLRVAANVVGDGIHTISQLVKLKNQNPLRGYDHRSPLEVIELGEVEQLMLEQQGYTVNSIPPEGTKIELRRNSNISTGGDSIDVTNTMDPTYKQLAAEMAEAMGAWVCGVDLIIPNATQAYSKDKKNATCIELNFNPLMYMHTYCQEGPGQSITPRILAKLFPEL
Description: In Table 1, a unit was defined as the amount of enzyme activity required to catalyze the formation of 1 μmol of product per hour. Specific activity was shown as units per mg protein. Activity was determined at 37° C. based on ADP formation in reaction mixtures containing L-glutamate and L-cysteine and using pyruvate kinase and lactate dehydrogenase to couple ADP formation to NADH oxidation, which was monitored at 340 nm.
Exp. Purif. 13, 268-276 (1998).
At set time points ranging from one to 30 minutes, 5 μl aliquots were removed and assayed for residual enzyme activity using the standard γ-GCS assay based on ADP formation.

Sequence of E. coli GS (P04425 whole entry): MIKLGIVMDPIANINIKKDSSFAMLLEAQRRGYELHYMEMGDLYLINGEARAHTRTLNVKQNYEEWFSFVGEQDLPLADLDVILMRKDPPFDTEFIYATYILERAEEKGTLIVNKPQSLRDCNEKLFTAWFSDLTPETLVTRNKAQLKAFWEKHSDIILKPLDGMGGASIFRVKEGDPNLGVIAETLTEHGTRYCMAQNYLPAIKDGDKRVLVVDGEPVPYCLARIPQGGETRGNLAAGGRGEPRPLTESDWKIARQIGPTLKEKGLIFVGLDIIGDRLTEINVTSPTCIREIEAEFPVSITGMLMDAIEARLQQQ
T3 sequence (Q82ZG8 whole entry): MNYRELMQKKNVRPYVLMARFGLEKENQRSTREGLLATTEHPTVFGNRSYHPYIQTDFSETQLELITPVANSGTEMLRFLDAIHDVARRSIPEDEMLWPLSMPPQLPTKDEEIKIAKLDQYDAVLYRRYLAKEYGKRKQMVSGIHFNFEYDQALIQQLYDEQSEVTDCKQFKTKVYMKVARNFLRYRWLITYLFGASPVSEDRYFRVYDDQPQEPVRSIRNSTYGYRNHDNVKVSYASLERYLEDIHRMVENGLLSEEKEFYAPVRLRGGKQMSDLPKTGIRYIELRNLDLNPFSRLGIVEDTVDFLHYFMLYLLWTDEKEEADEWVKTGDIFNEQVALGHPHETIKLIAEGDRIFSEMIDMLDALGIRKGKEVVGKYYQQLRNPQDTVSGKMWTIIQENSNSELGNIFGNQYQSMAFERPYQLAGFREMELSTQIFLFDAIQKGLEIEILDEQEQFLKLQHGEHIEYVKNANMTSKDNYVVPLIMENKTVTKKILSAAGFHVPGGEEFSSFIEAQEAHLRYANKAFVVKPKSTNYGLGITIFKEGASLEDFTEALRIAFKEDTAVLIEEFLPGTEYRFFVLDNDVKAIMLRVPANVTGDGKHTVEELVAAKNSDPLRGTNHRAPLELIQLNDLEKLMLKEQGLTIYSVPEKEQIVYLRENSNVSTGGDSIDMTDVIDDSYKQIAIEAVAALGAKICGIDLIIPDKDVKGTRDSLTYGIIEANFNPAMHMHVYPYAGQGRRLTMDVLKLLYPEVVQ
Sequence of E. coli γ-GCS (P0A6W9 whole entry): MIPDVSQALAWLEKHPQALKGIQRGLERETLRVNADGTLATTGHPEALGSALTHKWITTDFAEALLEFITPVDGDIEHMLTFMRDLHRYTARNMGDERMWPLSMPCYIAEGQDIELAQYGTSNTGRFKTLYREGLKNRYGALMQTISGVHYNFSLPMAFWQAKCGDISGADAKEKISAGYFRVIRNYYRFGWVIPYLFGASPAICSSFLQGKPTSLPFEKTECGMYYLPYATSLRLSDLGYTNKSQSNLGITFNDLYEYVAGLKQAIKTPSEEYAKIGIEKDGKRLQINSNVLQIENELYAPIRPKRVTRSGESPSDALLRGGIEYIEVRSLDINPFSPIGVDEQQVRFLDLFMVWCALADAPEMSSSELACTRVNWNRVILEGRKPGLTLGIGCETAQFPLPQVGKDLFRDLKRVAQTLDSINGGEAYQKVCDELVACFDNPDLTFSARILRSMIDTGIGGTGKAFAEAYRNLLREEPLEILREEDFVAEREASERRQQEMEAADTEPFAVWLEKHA

For `Nc1ncnc2c1ncn2[C@@H]1O[C@H](COP(=O)(O)OP(=O)(O)OP(=O)(O)O)[C@@H](O)[C@H]1O` [ATP], the Km ([1]; substrate Km) is given as 62 µM, the Vmax ([1]; unit = 1 μmol product per hour) is given as about 3000 units/mg and the Km ([2]; substrate Km) is given as 400 ± 40 µM. The Vmax ([2]; unit = 1 μmol product per hour) was about 1500 units/mg, the Vmax [3] was 650 units/mg and the Km ([3]; substrate Km) was 1800 µM. For the same compound, the Vmax [4] was 361 ± 84 units/mg, the Km ([4]; substrate Km) was 220 ± 30 µM and the Km [5] was 179 ± 5 µM. For the same compound, the Km [6] was 2300 ± 100 µM, the Km ([7]; substrate Km) was 66 ± 9 µM and the Vmax ([7]; unit = 1 μmol product per hour) was 1332 ± 120 units/mg.
